Test results: patent US20100260673A1, “PHAGE DISPLAY PEPTIDE PROBES FOR IMAGING EARLY RESPONSES TO ANTIANGIOGENIC TREATMENT” (priority 2009, published 2010)
Read-outs that look alike come from different tables or passages of the source. Where a SMILES comes first, the peptide text is derived from it. Where no end group is shown, it is not given here. The star is where a group is joined. Propanoyl(2-F) = CC(F)C(=O)*

How the values were obtained:
[1] = tested on: LS174T human colorectal cancer; test: Tumor growth study; type: in vivo, mice
Description: Animal Models: Female athymic nude mice (nu/nu) were obtained from Harlan (Indianapolis, Ind.) at 6-8 weeks of age and were kept under sterile conditions. The LS174T or 22B cells were harvested and suspended in sterile PBS at a concentration of 5×10^7 viable cells/ml. Viable tumor cells (5×10^6) in sterile PBS (100 μL) were injected subcutaneously into the right shoulder. […] Tumor growth was followed by caliper measurements of perpendicular measures of the tumor. The tumor volume was estimated by the formula: tumor volume=a×(b2)/2, where a and b were the tumor length and width respectively in mm.

LS174T tumor [2] = conditions: mouse, in vivo
Description: The 4T1 cells were harvested from the tumor and suspended in sterile PBS at a concentration of 2×10^7 viable cells/mL.
Tumor Growth Study: When palpable tumors (150-200 mm^3) were present in all animals, mice were randomly divided into two groups (n=10/group). Cancer therapy response was evaluated in LS174T human colorectal cancer, 4T1 murine breast cancer and 22B human head-neck cancer models. […] The mouse body weight and tumor volume were measured every 3 days for up to 20 days before euthanasia.
Small Animal PET Imaging: A detailed procedure for positron emission tomography (PET) imaging has been reported earlier (Li et al., (2008) J. Nucl. Med. 49: 453-461). Briefly, PET scans were performed using a microPET R4 rodent model scanner (Siemens Medical Solutions). […] The images were reconstructed by a two-dimensional ordered subsets expectation maximum (OSEM) algorithm with no attenuation or scatter correction. For each microPET scan, regions of interest (ROIs) were drawn over the tumor by using vendor software ASI Pro 5.2.4.0 on decay corrected whole-body coronal images. Assuming a tissue density of 1 g/ml, the ROIs were converted to MBq/g/min using a conversion factor, and then divided by the administered activity to obtain an imaging ROI-derived percent injected dose per gram (% ID/g).

[3] = for metabolic stability in vivo: urine after 1 hr
Description: Metabolic Stability of AVP Peptide: Nude mice bearing LS174T tumor xenografts were intravenously injected with 3.7 MBq of ^18F-FP-AVP. Urine samples were collected 1 h after tracer injection and analyzed by HPLC.
Radiochemistry: Semi-preparative reversed-phase high performance liquid chromatography (RPHPLC) using a Vydac protein and peptide column (218TP510; 5 μm, 250×10 mm) was performed on a Dionex 680 chromatography system with a UVD 170U absorbance detector and model 105S single-channel radiation detector (Carroll & Ramsey Associates). The recorded data were processed using Chromeleon version 6.50 software. With a flow rate of 5 ml/min, the mobile phase was changed from 95% solvent A [0.1% trifluoroacetic acid (TFA) in water] and 5% B [0.1% TFA in acetonitrile] (0-2 min) to 35% solvent A and 65% solvent B at 32 min. […] C18 Sep-Pak cartridges (Waters) were pretreated with ethanol and water before use.

22B tumor = conditions: Bevacizumab-treated mice, 4T1 and 22B in the same animal
4T1 tumor = conditions: Bevacizumab-treated mice
[4] = tested on: tumor that responds to the anti-angiogenic drug ZD4190 therapy; conditions: ZD4190-treated
Description: Two-dimensional NIR fluorescence images were acquired at various time points after injection using a Maestro in vivo imaging system (CRI, Woburn, Mass.; IRdye800 excitation=735 nm, emission=780 nm long pass).

LS174T tumor [5] = conditions: Bevacizumab-treated mice
[6] = tested on: human umbilical vein endothelial cells (HUVEC); conditions: 48 h incubation, various concentrations
Description: (§1) Toxicity of AVP on Cell Viability by MTT Assay: MTT (3-(4,5-dimethylthiazolyl-2)-2,5-diphenyltetrazolium bromide; ATCC) assays were used to measure cell viability. Three thousand tumor cells or HUVECs were seeded per well in a 96-well plate and allowed to incubate for 24 h. After incubation with various concentrations of peptide AVP for 48 h, 10 μl of MTT reagent was added to each well. Four hours later, when the purple precipitate became visible, the supernatant was discarded, and 100 μl of DMSO was added to each well and the plate was shaken in the dark for 10 min at room temperature. The absorbance at 570 nm was then measured using a microplate reader (Tecan).

[7] = tested on: LS174T human colorectal cancer cells; conditions: 48 h incubation, various concentrations
Description: as §1

[8] = tested on: 4T1 murine breast cancer cells; conditions: 4T1, 48 h incubation, various concentrations
Description: as §1

Bevacizumab (AVASTIN™): recombinant humanized monoclonal IgG1 antibody that binds human VEGF
additional time after imaging until statistically significant change in tumor volume versus saline control ([1]; LS174T and 22B tumor models, imaging on fifth day of treatment): 5 to 6 days | difference in tumor volume between treatment and control groups ([1]; fifth day following the start of treatment, 1 day after three doses): no difference

CC(C)C[C@H](NC(=O)C(C)F)C(=O)N[C@@H](CC(C)C)C(=O)N[C@@H](C)C(=O)N[C@@H](CC(=O)O)C(=O)N[C@H](C(=O)N[C@H](C(=O)N[C@@H](Cc1c[nH]cn1)C(=O)N[C@@H](Cc1c[nH]cn1)C(=O)N[C@@H](CCCNC(=N)N)C(=O)N1CCC[C@H]1C(=O)N[C@@H](Cc1c[nH]c2ccccc12)C(=O)N[C@H](C(=O)O)[C@@H](C)O)[C@@H](C)O)[C@@H](C)O (some centres unmarked) [18F-FP-AVP] ({Propanoyl(2-F)}-LLADTTHHRPWT-OH)
microPET tumor uptake, Avastin treated versus control PBS treated tumors (LS174T tumor [2]): significantly higher uptake | metabolic stability in vivo [3]: good metabolic stability | metabolic stability in vivo ([3]; listed as 18F-labeled Bevacizumab (AVASTIN™)-responsive peptide): minimal degradation or metabolism | intact tracer in urine ([3]; urine sample 1 h after i.v. injection, HPLC): about 90%

LLADTTHHRPWT [AVP]
concentration in 22B tumor (22B tumor): is concentrated | concentration in / binding to 4T1 tumor (4T1 tumor; listed as AVP peptide): no binding | concentration in / binding to 4T1 tumor (4T1 tumor; listed as Bevacizumab (AVASTIN™)-responsive peptide): not concentrated | concentration in tumor responding to ZD4190 therapy [4]: concentrated | concentration in LS174T tumor (LS174T tumor [5]): is concentrated | effect on cells (MTT) [6]: little effect | effect on cells (MTT) [7]: little effect | effect on cells (MTT) [8]: little effect
